Measurements: PubChem BioAssay AID1845219 (Molecular Pharmacology Branch, DTP, NCI, 2023)
Several values for one entry are separate records, joined by “and”; a condition that tells them apart may be missing. Identical values can stand only once.

Test system: SYO-1 tumor spheroids, viability % test/control
Test: Anticancer human tumor SYO-1 cell line growth inhibition;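 also: spheroids exposed to agents for 7 days before viability read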;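 as to viability, T/C: 100% = DMSO vehicle control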
Conditions: spheroids with HUVEC and MSC; for viability, T/C: stronger effect = lower value
Procedure, shortened: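 Single agents and combinations were tested on spheroids built from tumor cells plus HUVEC and hMSC, at half-log dilutions starting at or near clinical Cmax, else 10 microM; final DMSO 0.25% (v/v).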

[1] = curve of first compound, second compound 0.003 µM
[2] = curve of first compound, second compound 0.00949 µM
[3] = curve of first compound, second compound 0.03 µM
[4] = curve of first compound, second compound 0.0949 µM
[5] = curve of first compound, second compound 0.3 µM
[6] = second compound 0.003 µM, first compound 0.0949 µM
[7] = second compound 0.003 µM, first compound 0.3 µM
[8] = second compound 0.003 µM, first compound 0.949 µM
[9] = second compound 0.003 µM, first compound 3 µM
[10] = second compound 0.00949 µM, first compound 0.0949 µM
[11] = second compound 0.00949 µM, first compound 0.3 µM
[12] = second compound 0.00949 µM, first compound 0.949 µM
[13] = second compound 0.00949 µM, first compound 3 µM
[14] = second compound 0.03 µM, first compound 0.0949 µM
[15] = second compound 0.03 µM, first compound 0.3 µM
[16] = second compound 0.03 µM, first compound 0.949 µM
[17] = second compound 0.03 µM, first compound 3 µM
[18] = second compound 0.0949 µM, first compound 0.0949 µM
[19] = second compound 0.0949 µM, first compound 0.3 µM
[20] = second compound 0.0949 µM, first compound 0.949 µM
[21] = second compound 0.0949 µM, first compound 3 µM
[22] = second compound 0.3 µM, first compound 0.0949 µM
[23] = second compound 0.3 µM, first compound 0.3 µM
[24] = second compound 0.3 µM, first compound 0.949 µM
[25] = second compound 0.3 µM, first compound 3 µM

SMILES | IC50 [1] | IC50 [2] | IC50 [3] | IC50 [4] | IC50 [5] | viability, T/C [6] | viability, T/C [7] | viability, T/C [8] | viability, T/C [9] | viability, T/C [10] | viability, T/C [11] | viability, T/C [12] | viability, T/C [13] | viability, T/C [14] | viability, T/C [15] | viability, T/C [16] | viability, T/C [17] | viability, T/C [18] | viability, T/C [19] | viability, T/C [20] | further results
CNCc1ccc(-c2cc(-c3nc(-c4ccc(S(=O)(=O)C(C)C)cc4)cnc3N)on2)cc1 + CC[C@@]1(O)C(=O)OCc2c1cc1n(c2=O)Cc2cc3c(CN(C)C)c(O)ccc3nc2-1 | 0.0245 µM | < 0.00949 µM | < 0.00949 µM | < 0.00949 µM | < 0.00949 µM | 3.75% | 2.18% | 0.36% | 0.11% | 2.57% | 1.53% | 0.14% | 0.09% | 2.63% | 2.32% | 0.17% | 0.1% | 2.21% | 1.43% | 0.17% | viability, T/C (second compound 0.003 µM, first compound 0.00949 µM): 85.4%; viability, T/C (second compound 0.003 µM, first compound 0.03 µM): 42.5%; viability, T/C (second compound 0.00949 µM, first compound 0.00949 µM): 4.64%; viability, T/C (second compound 0.00949 µM, first compound 0.03 µM): 3.26%; viability, T/C (second compound 0.03 µM, first compound 0.00949 µM): 1.95%; viability, T/C (second compound 0.03 µM, first compound 0.03 µM): 2.01%; viability, T/C (second compound 0.0949 µM, first compound 0.00949 µM): 1.79%; viability, T/C (second compound 0.0949 µM, first compound 0.03 µM): 1.82%; viability, T/C [21]: 0.11%; viability, T/C (second compound 0.3 µM, first compound 0.00949 µM): 1.93%; viability, T/C (second compound 0.3 µM, first compound 0.03 µM): 1.65%; viability, T/C [22]: 1.95%; viability, T/C [23]: 1.63%; viability, T/C [24]: 0.24%; viability, T/C [25]: 0.17%
Cc1sc2c(c1C)C(c1ccc(Cl)cc1)=NC(CC(=O)Nc1ccc(O)cc1)c1nnc(C)n1-2 (configuration not stated) | – | – | – | – | – | – | – | – | – | – | – | – | – | – | – | – | – | – | – | – | viability, T/C (compound 0.00949 µM): 93.8% and 91.9% and 91.3%; viability, T/C (compound 0.03 µM): 90.7% and 90.8% and 85.5%; viability, T/C (compound 0.0949 µM): 31.8% and 49.4% and 54.7%; viability, T/C (compound 0.3 µM): 1.04% and 3.66% and 1.07%; viability, T/C (compound 0.949 µM): 0.73% and 0.9% and 0.49%; viability, T/C (compound 3 µM): 0.63% and 0.72% and 0.4%; IC50 (curve of compound): 0.0665 µM and 0.0934 µM and 0.105 µM
O=C(c1cc(Cc2n[nH]c(=O)c3ccccc23)ccc1F)N1CCN(C(=O)C2CC2)CC1 + CC[C@@]1(O)C(=O)OCc2c1cc1n(c2=O)Cc2cc3c(CN(C)C)c(O)ccc3nc2-1 | < 0.0949 µM | < 0.0949 µM | < 0.0949 µM | < 0.0949 µM | < 0.0949 µM | 40.5% | 24.1% | 8.02% | 2.93% | 2.56% | 2.35% | 2.18% | 1.79% | 1.56% | 1.76% | 1.49% | 1.64% | 1.91% | 1.81% | 1.99% | viability, T/C (second compound 0.003 µM, first compound 9.49 µM): 2.62%; viability, T/C (second compound 0.003 µM, first compound 30 µM): 2.56%; viability, T/C (second compound 0.00949 µM, first compound 9.49 µM): 2.63%; viability, T/C (second compound 0.00949 µM, first compound 30 µM): 2.34%; viability, T/C (second compound 0.03 µM, first compound 9.49 µM): 1.62%; viability, T/C (second compound 0.03 µM, first compound 30 µM): 1.56%; viability, T/C [21]: 1.8%; viability, T/C (second compound 0.0949 µM, first compound 9.49 µM): 1.74%; viability, T/C (second compound 0.0949 µM, first compound 30 µM): 1.82%; viability, T/C [22]: 2.04%; viability, T/C [23]: 1.92%; viability, T/C [24]: 2.02%; viability, T/C [25]: 1.92%; viability, T/C (second compound 0.3 µM, first compound 9.49 µM): 1.99%; viability, T/C (second compound 0.3 µM, first compound 30 µM): 2.21%
